Data from US9771394B2, “Antimicrobial polymyxins for treatment of bacterial infections” (priority 2014, dated 2017).
pIC50: −log10 of the molar value. “And” between values parts separate entries of the source, which are not always exact repeats. Identical values can stand only once. Like-named read-outs stand apart in the source and are kept apart here. Marks after values point to notes of the source that are not given here. Starred links: 1 amine or outer side, 2 acyl side, 3 side chain; linkers in the order of their positions; H or OH if unused. Positions of bridges follow the written chain, without caps; N, C: chain ends. Non-standard residues stand in square brackets, D forms with d. Residues, ends and D or L forms follow the SMILES beside them. ξ: configuration not given here. *: point of attachment. Thr(3ξ) = CC(O)[C@H](N)C(=O)O; Suc = O=C(CCC(=O)[*:2])[*:1]; X1 = CCC(C)(C)C(=O)OCCC(=O)*; X2 = CCCC(C)OC(=O)CCC(=O)*; X5 = CCCCOP(=O)(O)CC(=O)*; Dab = NCC[C@H](N)C(=O)O

Key:
human HK-2 cell = assay: Human HK-2 cell cytotoxicity assay (in vitro nephrotoxicity); format: cell-based
Excerpt: (§1) Nephrotoxicity of polymyxins could be determined in vitro using human renal […] (HK-2) cytotoxicity assay, analogously to that described, for example, by Keirstead et al. in Toxicol. Sci., 2014, vol. 137, pp. 278-291. In vivo, nephrotoxicity could be determined using urine biomarker assays, such as clinically validated neutrophil gelatinase-associated lipocalin (NGAL) assay described, for example by Devarajan in Scand. J. Clin. Lab. Invest. Suppl., 2008, vol. […], pp. 89-94.

P. aeruginosa [1] = assay: P. aeruginosa thigh infection mouse model, IV dosing; format: in vivo, Pseudomonas aeruginosa; conditions: CFU change at 12 h vs no treatment control, PMB values in parenthesis side-by-side
Excerpt: (§2) A lower ED50 value indicates a higher therapeutic efficacy of the drug. The number of surviving animals (from the total number of infected animals used at a given drug dose) is another indicator of efficacy. […] In thigh and lung infection models, a greater reduction in the bacterial colony-forming units (CFU) indicates stronger beneficial therapeutic effect (more bacterial eradication), while a lower CFU reduction or an increase in CFU value indicates a lower effect (less bacterial eradication), or an absence of the therapeutic effect.

E. coli WECO 1003 = format: cell-based, Escherichia coli
Excerpt: (§3) In vitro activity of compounds provided herein may be assessed by standard testing procedures such as the determination of minimum inhibitory concentration (MIC, μg/mL) just as described in “Methods for Dilution Antimicrobial Susceptibility Tests for Bacteria That Grow Aerobically; Approved Standard—Ninth Edition,” published in 2012 by the Clinical and Laboratory Standards Institute, Wayne, Pa., USA. Thus, bacterial colonies grown overnight on Mueller-Hinton Agar plate were selected and suspended in sterile saline to a turbidity of about 80% transmittance, as measured by a spectrophotometer. The suspension was diluted 200-fold with cation-adjusted Mueller-Hinton broth to serve as the inoculum for testing. Two-fold serial dilutions of the test compound were performed in 96-well master plate to arrive at desired concentration. Samples of 10 microliter from each well of the master plate were transferred into respective wells of 96-well assay plate. Bacterial inoculum (90 microliter) was introduced into each well of the assay plate. The assay plate was placed in the incubator at 35° C. for about 24 h (without agitation) followed by the MIC determination. MIC values were determined based on the presence or absence of bacterial growth in wells at the given test agent concentration. MIC value is defined as the lowest concentration of test antibiotic that prevents visible bacterial growth.
(§4) The useful activity of exemplary compounds described herein against Gram-negative pathogens Pseudomonas aeruginosa, Escherichia coli, or Klebsiela pneumoniae is illustrated by the MIC data of Table 1.

[2] = Stability in human plasma at 37° C.; format: in vitro ADME; conditions: for remaining at 1 h, 25 μM / remaining at 4 h, 25 μM: human, plasma
Description: Exemplary compounds of this invention were tested for stability in human plasma at 37° C., replicating in vivo conditions of mammalian blood. Plasma stability for select compounds was performed as follows. Human plasma (K2 EDTA) was obtained from Bioreclamation. The assay was carried out in 96-well microtiter plates. Test compounds were incubated in duplicate at 37° C. in the presence of plasma. Reaction mixtures (25 μL) contained a final concentration of 25 μM test compound. The extent of metabolism was calculated as the disappearance of the test compound over time. Eucatropine was included as a positive control to verify assay performance. At each given time point, 100 μL of quench solution (100% MeCN with 0.1% HCOOH) with internal standard was transferred to each well. Plates were sealed, vortexed, and centrifuged at 4° C. for 15 minutes at 4,000 rpm. The supernatant was transferred to fresh plates for LC/MS/MS analysis. The formation of a potential metabolite was monitored in all samples. The samples were analyzed on LC/MS/MS using an AB Sciex API 4000 instrument, coupled to a Shimadzu LC-20AD LC Pump system. Analytical samples were separated using a Waters Atlantis T3 dC18 reverse phase HPLC column (20 mm×2.1 mm) at […] a flow rate of 0.5 mL/min, eluting with 0.1% aq. HCOOH and 0.1% HCOOH in MeCN (using gradient from 2% to 98% of the latter). Remaining test compounds were quantified via MS/MS ion current.

K. pneumoniae KPN1004 = format: cell-based, Klebsiela pneumoniae
Excerpt: as §3, §4

[3] = test system: neutrophil gelatinase-associated lipocalin (NGAL); assay: Rat urine NGAL biomarker assay (in vivo nephrotoxicity); conditions: repeated dose, 25 mg/kg/day QID, SC, Low = signal similar to the background
Excerpt: as §1

P. aeruginosa PAE 1001 = format: cell-based, Pseudomonas aeruginosa
Excerpt: as §3, §4

E. coli = E. coli septicemia (systemic) mouse model, IV dosing; format: in vivo, Escherichia coli; conditions: PMB values are side-by-side comparator; for number (A) of surviving animals out of total (B) mice, A/B: at 5 mg/kg
Excerpt: as §2

P. aeruginosa [4] = assay: P. aeruginosa lung infection (pneumonia) mouse model, SC dosing; format: in vivo, Pseudomonas aeruginosa; conditions: for Relative CFU count, vs. PMB: mouse lung infection, 10 mg/kg; for P. aeruginosa Lung infection model ΔlogCFU at 10 mg/kg: mouse, CFU change at 24 h vs starting inoculum
Excerpt: as §2

[5] = test system: Gram-negative pathogens Pseudomonas aeruginosa, Escherichia coli, or Klebsiela pneumoniae; assay: MIC, Gram-negative panel of Table 1; format: cell-based
Excerpt: In vitro activity of compounds provided herein may be assessed by standard testing procedures such as the determination of minimum inhibitory concentration (MIC, μg/mL) just as described in “Methods for Dilution Antimicrobial Susceptibility Tests for Bacteria That Grow Aerobically; Approved Standard—Ninth Edition,” published in 2012 by the Clinical and Laboratory Standards Institute, Wayne, Pa., USA. Thus, bacterial colonies grown overnight on Mueller-Hinton Agar plate were selected and suspended in sterile saline to a turbidity of about 80% transmittance, as measured by a spectrophotometer. The suspension was diluted 200-fold with cation-adjusted Mueller-Hinton broth to serve as the inoculum for testing. Two-fold serial dilutions of the test compound were performed in 96-well master plate to arrive at desired concentration. Samples of 10 microliter from each well of the master plate were transferred into respective wells of 96-well assay plate. Bacterial inoculum (90 microliter) was introduced into each well of the assay plate. The assay plate was placed in the incubator at 35° C. for about 24 h (without agitation) followed by the MIC determination. MIC values were determined based on the presence or absence of bacterial growth in wells at the given test agent concentration. MIC value is defined as the lowest concentration of test antibiotic that prevents visible bacterial growth. […]

[6] = 35° C., about 24 h, cation-adjusted Mueller-Hinton broth

Molecule | Antibacterial activity (MIC) E. coli WECO 1003 (E. coli WECO 1003; [6]) | Antibacterial activity (MIC) K. pneumoniae KPN1004 (K. pneumoniae KPN1004; [6]) | Antibacterial activity (MIC) P. aeruginosa PAE 1001 (P. aeruginosa PAE 1001; [6]) | Relative CFU count, vs. PMB (P. aeruginosa [4]) | P. aeruginosa Lung infection model ΔlogCFU at 10 mg/kg (P. aeruginosa [4]) | HK-2 cytotoxicity class (human HK-2 cell) | pIC50 (human HK-2 cell) | P. aeruginosa Thigh model, IV dosing ΔlogCFU at 5 mg/kg (P. aeruginosa [1]) | Antibacterial activity (MIC) E. coli WECO 1003 (E. coli WECO 1003; WECO 1003, 24 h) | remaining at 1 h, 25 μM [2] | remaining at 4 h, 25 μM [2] | Antibacterial activity (MIC) K. pneumoniae KPN1004 (K. pneumoniae KPN1004; KPN1004, 24 h) | Antibacterial activity (MIC) P. aeruginosa PAE 1001 (P. aeruginosa PAE 1001; PAE 1001, 24 h) | E. coli Systemic model, IV dosing ED50 (E. coli) | number (A) of surviving animals out of total (B) mice, A/B (E. coli) | also measured
polymyxin B [reference compound] | 2-4^a μg/mL | 2-4^a μg/mL | 2-4^a μg/mL | 1 | +2.61 |  |  |  |  |  |  |  |  |  |  | HK-2 cytotoxicity class (human HK-2 cell; HK-2 cytotoxicity, Eurofins Cerep): Class 1; pIC50 (human HK-2 cell; HK-2 cytotoxicity, Eurofins Cerep, read-out: In vitro: human HK-2 cell assay IC50): 4.09; P. aeruginosa Thigh model, IV dosing ΔlogCFU at 5 mg/kg (P. aeruginosa [1]; listed as Polymyxin B (PMB)): −1.49 to −3.33; Compound remaining, % T = 1.0 h ([2]; human plasma, 37° C., 25 μM, 1.0 h): 100^a^ %; Compound remaining, % T = 4.0 h ([2]; human plasma, 37° C., 25 μM, 4.0 h): 100^a %; In vivo: rat urine biomarker NGAL [3]: High: above detection; E. coli Systemic model, IV dosing ED50 (E. coli; listed as PMB): 4.6 mg/kg and 3.9 mg/kg and 2.5 mg/kg; E. coli Systemic model, IV dosing ED50 (E. coli; listed as Polymyxin B (PMB)): 4 to 7 mg/kg; number (A) of surviving animals out of total (B) mice, A/B (E. coli; listed as PMB): 2/6 and 5/6 and 3/6
CCCCOP(=O)(O)CC(=O)N[C@@H](CCN)C(=O)N[C@H](C(=O)N[C@@H](CCN)C(=O)N[C@H]1CCNC(=O)[C@H](C(C)O)NC(=O)[C@H](CCN)NC(=O)[C@H](CCN)NC(=O)[C@H](CC(C)C)NC(=O)[C@@H](Cc2ccccc2)NC(=O)[C@H](CCN)NC1=O)C(C)O (stereo partly shown) [Example 33] (X5-[Dab][Thr(3ξ)][Dab][Dab][Dab][dF]L[Dab][Dab][Thr(3ξ)]; lactam 4-C) | 8 µg/mL | 8 µg/mL | 8 µg/mL |  |  |  |  |  |  |  |  |  |  |  |  | fold less active than polymyxin B comparator (MIC) ([5]; vs polymyxin B): about 2 fold
CCCC(C)OC(=O)CCC(=O)N[C@@H](CCN)C(=O)N[C@H](C(=O)N[C@@H](CCN)C(=O)N[C@H]1CCNC(=O)[C@H](C(C)O)NC(=O)[C@H](CCN)NC(=O)[C@H](CCN)NC(=O)[C@H](CC(C)C)NC(=O)[C@@H](Cc2ccccc2)NC(=O)[C@H](CCN)NC1=O)C(C)O (stereo partly shown) [Example 18] (X2-[Dab][Thr(3ξ)][Dab][Dab][Dab][dF]L[Dab][Dab][Thr(3ξ)]; lactam 4-C) |  |  |  | 4.8 × 10^−6 | −2.70 | Class 4 | < 3.70 | −1.29 | 2 µg/mL | 66% | 18% | 4 µg/mL | 2 µg/mL | 7.5 mg/kg | 3/6 | 
CC(C)C[C@@H]1NC(=O)[C@@H](Cc2ccccc2)NC(=O)[C@H](CCN)NC(=O)[C@@H](NC(=O)[C@H](CCN)NC(=O)[C@@H](NC(=O)[C@H](CCN)NC(=O)CCC(=O)O)C(C)O)CCNC(=O)[C@H](C(C)O)NC(=O)[C@H](CCN)NC(=O)[C@H](CCN)NC1=O (stereo partly shown) [Example 19] (Suc-[Dab][Thr(3ξ)][Dab][Dab][Dab][dF]L[Dab][Dab][Thr(3ξ)]; lactam 4-C) |  |  |  |  |  | Class 4 | < 3.70 | −0.14 | >32 µg/mL |  |  | >32 µg/mL | 4 µg/mL |  |  | antibacterial activity in words (MIC, Table 1) ([5]; Example 19: against two Gram-negative pathogens in the test): essentially inactive
CCC(C)(C)C(=O)OCCC(=O)N[C@@H](CCN)C(=O)N[C@H](C(=O)N[C@@H](CCN)C(=O)N[C@H]1CCNC(=O)[C@H](C(C)O)NC(=O)[C@H](CCN)NC(=O)[C@H](CCN)NC(=O)[C@H](CC(C)C)NC(=O)[C@@H](Cc2ccccc2)NC(=O)[C@H](CCN)NC1=O)C(C)O (stereo partly shown) [Example 12] (X1-[Dab][Thr(3ξ)][Dab][Dab][Dab][dF]L[Dab][Dab][Thr(3ξ)]; lactam 4-C) |  |  |  | 1.7 × 10^−5 | −2.15 | Class 4 | < 3.70 | −1.44 | 2 µg/mL | 67% | 31% | 2 µg/mL | 4 µg/mL | 2.5 mg/kg | 3/6 | 
